Reference: patent US20190105381A1, “METHOD FOR PREPARING VIRAL PARTICLES WITH CYCLIC DINUCLEOTIDE AND USE OF SAID PARTICLES FOR TREATING CANCER” (priority 2016, published 2019)

Columns and labels:
HEK293 cells = type: cell-based, human; conditions: for IFN response in target cells under pharmacological inhibition: cells treated 1 hour prior to infection, 5 μM, MOI=1; for effect on IFN induction by HIV-1-GFP: cGAS-reconstituted producer cells treated during virus preparation, 20 μM GW4869, 60 μM Ac-DEVD-CHO
[1] = test system: IFNβ promoter reporter (p125-F-Luc); type: cell-based, human; conditions: HEK293 cells transfected with 2 μg 2′-3′-cGAMP, 24 hours
[2] = test system: Ova-specific CD8+ T cells; experiment: CD8+ T cell responses after subcutaneous immunization (tetramer, IFN-g ELISPOT); type: in vivo, mice; conditions: cGAMP at a far higher dose of cGAMP

Compound | IFN response in target cells under pharmacological inhibition (HEK293 cells) | effect on IFN induction by HIV-1-GFP (HEK293 cells) | other results
Cc1ccnc2c1NC(=O)c1cccnc1N2C1CC1 [nevirapine] | independent of reverse transcription and integration | – | –
Cc1nnc(C(=O)NC(C)(C)c2nc(C(=O)NCc3ccc(F)cc3)c(O)c(=O)n2C)o1 [raltegravir] | independent of reverse transcription and integration | – | –
Nc1nc2c(ncn2[C@@H]2O[C@@H]3COP(=O)(O)O[C@H]4[C@@H](O)[C@H](n5cnc6c(N)ncnc65)O[C@@H]4COP(=O)(O)O[C@@H]2[C@@H]3O)c(=O)[nH]1 [cGAMP, 2′-3′-cyclic GMP-AMP] | – | – | IFN induction in response to cGAMP [1]: induce IFN; tumor-specific T cell response [2]: not able to significantly induce
Ac-DEVD-CHO | – | did not diminish IFN induction | –
O=C(/C=C/c1ccc(/C=C/C(=O)Nc2ccc(C3=NCCN3)cc2)cc1)Nc1ccc(C2=NCCN2)cc1 [GW4869] | – | did not diminish IFN induction | –
